These are literature values, as cited in article PMC11881559 (Antimicrobial Agents and Chemotherapy, 2025).

The test system of data set [1] is Delta variant of the novel coronavirus. To be noted: K18-hACE2 mice infected with Delta variant, 300 mg/kg/day; cited from earlier work.
The test system of data set [2] is SARS-CoV-2 variants, including the wild-type, Alpha, Beta, Delta, and Omicron strains. To be noted: cited from earlier work.

Each structure is given as a SMILES string.

As for `O=C(NC1CCCC1)C(=O)[C@H](C[C@@H]1CCNC1=O)NC(=O)[C@@H]1[C@H]2CCC[C@H]2CN1C(=O)[C@@H](NC(=O)C(F)(F)F)C1CCCCC1` [RAY1216, leritrelvir], the “lung viral titers and virus-induced pathology” value in data set [1] was “significantly decreased lung viral titers and reduced virus-induced pathology”. Further, the “inhibition of SARS-CoV-2 variants in vitro” value in data set [2] is listed as “clearly inhibited”.
